According to US9458194B2, “Compounds useful in the treatment and/or care of the skin and their cosmetic or pharmaceutical compositions” (Lubrizol Advanced Materials, Inc., priority 2013, dated 2016):

What was measured:
Type in all cases: cell-based
[1] = test system: human fibulin-5 gene promoter; experiment: Luminescence assay of human fibulin-5 gene promoter activation (Firefly luciferase); conditions: positive control, 10 ng/mL
Description: (§1) The effect of the compounds of the invention on the activity of the fibulin-5 and LOXL1 promoters was studied and compared to the levels of basal expression of the untreated cells (negative control) and with the effect of Interleukin-1β (IL-1β) in the same conditions.
(§2) Cells from an epithelial cell line doubly transfected with fibulin-5 and LOXL1 human promoters in which the luciferase gene is under the regulatory control of said promoters (4×10^4 cells/well) were seeded in a white plate and in a 96-well transparent plate, both treated with polylysine, and were incubated in Dulbecco's Modified Eagle Medium (DMEM-Glutamax™), with 10% of FBS, 1% Penicillin-Streptomycin (P/S), 1 mg/ml of Geneticin® (G418) and […] at 37° C. in at atmosphere with 5% CO2. After the incubation, the cells were incubated for 6 hours at 37° C. in at atmosphere with 5% CO2 with DMEM without serum. Then, this medium was removed and the cells were treated with different compounds at 0.1 mg/ml, 0.5 mg/ml, 1 mg/ml or 2 mg/mL in DMEM/1% FBS for 16-24 hours. As a positive control to activate the fibulin-5 and LOXL1 promoters 10 ng/ml of IL-1β were used and as a negative control untreated cells were used, just with DMEM/1% FBS. The incubations and treatments were carried out in parallel in the white plate and the transparent plate and in triplicate for each condition. After the treatment, the relative light units per second were determined (RLU/s) in the white plate by means of consecutive quantification of the activities of Firefly luciferase (fibulin-5 promoter) and Renilla luciferase (LOXL1 promoter), and the number of total cells/well in the transparent plate by means of staining with Crystal Violet (CV). To determine the Firefly and Renilla luciferase activities the Dual-Glo Luciferase Assay System kit by Promega was used. The cells were briefly lysed and the Firefly luciferase substrate was added. After incubating for 10 min at 25° C., the RLU/s were quantified by luminescence reader (Lumistar-BMG). Then the Firefly signal was extinguished and the Renilla luciferase substrate was added. After incubating for 5 min at 25° C., the RLU/s were quantified by the same luminescence reader. With regard to the determination of the total number of cells by Crystal Violet, the CV dyes the DNA of the cells and the quantity of dye taken by the cells can be measured in an absorbency reader at 630 nm (Multiskan Ascent). The color obtained is directly proportional to the total number of cells per well. The cells were briefly incubated with 0.05% CV plus 4% Formalin for 20 minutes and after several washes with Milli-Q water, the cells were left to dry for 1-2 hours and then 0.1 M of HCl was added for its immediate reading. The RLU/s of the luciferases corresponding to each promoter were normalized by the average of the total number of cells per condition. Three independent assays with 3 measurements per assay were carried out for Ac-L-Asp-L-Val-L-Lys-L-Tyr-OH at 0.1 mg/mL and 1 mg/mL. 1 assay with 3 measurements was carried out for the other compounds and concentrations.
(§3) The increase in the activity of the promoters with regard to the levels of expression of the negative control was determined.

[2] = test system: human LOXL1 gene promoter; experiment: Luminescence assay of human LOXL1 gene promoter activation (Renilla luciferase); conditions: positive control, 10 ng/mL
Description: as §1, §2, §3

fibulin-5 = experiment: Immunofluorescence of fibulin-5 protein expression in human dermal fibroblasts; conditions: for Increase in the expression of the protein fibulin-5 with regard to the negative control: 48 hours, HDFa; for Average increase of the expression of the proteins fibulin-5 and LOXL1: positive control, average for both proteins
Description: (§4) In this experiment the number of times that the expression of the proteins fibulin-5 and LOXL1 in human dermal fibroblasts is increased with regard to the basal levels in untreated cells (negative control) when treating the cells with 0.5 mg/ml of the product Ac-L-Asp-L-Val-L-Lys-L-Tyr-OH and it is compared with the effect of Interleukin-1β (IL-1β) at 20 ng/ml and TGF-β at 5 ng/ml (positive controls), which increase an average of 1.5 times and 2 times, respectively, the expression of these proteins, in the same conditions.
(§5) Adult human dermal fibroblasts were seeded (HDFa) (2.5×10^3 cells/well) in a 96-well transparent plate, treated with polylysine, and were incubated in complete medium 106 for 72 hours at 37° C. in an atmosphere with 5% CO2. After the incubation, the cells were treated with the different compounds in complete medium 106 for 48 hours at 37° C. in an atmosphere with 5% CO2. As positive controls of increase of the expression of the proteins fibulin-5 and LOXL1, 5 ng/ml of TGF-β and 20 ng/ml of IL-1β were used and as a negative control untreated cells were used, just with complete medium 106. The incubations and the treatments were carried out in quadruplicate for each condition. After the treatment, the levels of expression of both proteins were quantified relatively by using specific fluorescent antibodies, photographic recording by microscopy and subsequent quantification of the fluorescent signal using image processing software, the number of total cells by fluorescent staining of the nuclei (DAPI) and subsequent quantification in the same images. For the determination of the expression of the proteins fibulin-5 and LOXL1 the cells were washed with PBS 48 hours after the treatments and were fixed with paraformaldehyde. Next, duplicates of each treatment were used to mark separately the fibulin-5 and LOXL1 proteins. For each of the proteins a specific primary monoclonal antibody was used (Abcam). After the primary incubation, the cells were washed with PBS and the secondary marking was carried out with specific fluorescent polyclonal antibodies for each primary antibody. For fibulin-5 an Alexa Fluor® 594 (red) secondary antibody was used and for LOXL1 an Alexa Fluor® 488 (green) secondary antibody was used. 16 hours later all the samples were stained with DAPI (4′,6-Diamidino-2-Phenylindole), fluorescent marker for the staining of nuclei, and the photographic recording was carried out by fluorescence microscopy in a Leica microscope. 2-4 images were taken per condition and per protein and the fluorescent signals were quantified (IOD) corresponding to each protein and the nuclei by means of image analysis software. The fibulin-5 and LOXL1 signals were normalized according to the number of total nuclei for each image. 3 independent assays were carried out.

LOXL1 = experiment: Immunofluorescence of LOXL1 protein expression in human dermal fibroblasts; conditions: 48 hours, HDFa
Description: as §4
as §5, with “For the determination of the expression of the proteins fibulin-5 and LOXL1 the cells were washed with PBS 48 hours after the treatments and were fixed with paraformaldehyde. Next, duplicates of each treatment were used to mark separately the fibulin-5 and LOXL1 proteins. For each of the proteins a specific primary monoclonal antibody was used (Abcam). After the primary incubation, the cells were washed with PBS and the secondary marking was carried out with specific fluorescent polyclonal antibodies for each primary antibody. For fibulin-5 an Alexa Fluor® 594 (red) secondary antibody was used and for LOXL1 an Alexa Fluor® 488 (green) secondary antibody was used.” left out, “The fibulin-5 and LOXL1 signals were normalized according to the number of total nuclei for each image. 3 independent assays were carried out.” left out

elastin = experiment: Elastin synthesis in human dermal fibroblasts (Fastin Elastin Assay); conditions: positive control, 10 ng/mL, 48 hours, vs negative control
Description: Stimulation of elastin synthesis induced by Ac-L-Asp-L-Val-L-Lys-L-Tyr-OH was evaluated by means of a quantitative method of staining, Fastin Elastin Assay (Tebu-Bio). Human dermal fibroblasts were trypsinized and seeded at a density of 7×10^4 cells/well in 6-well plates. After 72 hours of incubation at 37° C., 5% CO2, with a humidified atmosphere, a new medium was added with 0.01 μg/mL Ac-L-Asp-L-Val-L-Lys-L-Tyr-OH. Untreated cells were used as negative controls and cells treated with TGF-1β (Peprotech) were used as positive controls. The cells were incubated for an additional 48 hours at 37° C., 5% CO2, with humidified atmosphere. Subsequently, the elastin was solubilized and extracted, for which the cells were washed twice with PBS (Sigma) and a solution was added to uncouple the cells (Cell Dissociation Solution, Sigma). The suspension of cells was transferred to centrifuge tubes, 1 M Oxalic Acid was added provided by the kit and they were incubated at 100° C. for 1 hour. Once the elastin became soluble, a calibration curve was prepared with the elastin provided with the kit. From that point, the samples and dilutions of the calibration curve were processed following the kit instructions to isolate and stain the elastin. Lastly, the dye was extracted and the absorbency reading was carried out at a wave length of 540 nm in a TECAN GENios spectrophotometric reader.

“IL-1β: Interleukin-1β, positive control to activate the fibulin-5 and LOXL1 promoters and increase expression of the proteins [reference compound]” was tested, and the “Increase in the activity of the human promoter of the FIBULIN 5 gene with regard to the negative control” value [1] was 80.40%, the “Increase in the activity of the human promoter of the LOXL1 gene with regard to the negative control” value [2] was 156.26% and the “Increase in the expression of the protein fibulin-5 with regard to the negative control” value (fibulin-5; 20 ng/mL) was 42.07%. The “Average increase of the expression of the proteins fibulin-5 and LOXL1” value (fibulin-5; 20 ng/ml) was 1.5 times and the “Increase in the expression of the protein LOXL1 with regard to the negative control” value (LOXL1; 20 ng/mL) was 87.50%.

TGF-β was tested, and the “Increase in the expression of the protein fibulin-5 with regard to the negative control” value (fibulin-5; 5 ng/mL) was 147.72%, the “Average increase of the expression of the proteins fibulin-5 and LOXL1” value (fibulin-5; 5 ng/ml) was 2 times and the “Increase in the expression of the protein LOXL1 with regard to the negative control” value (LOXL1; 5 ng/mL) was 45.93%.

“TGF-1β: TGF-1β (Peprotech), positive control in the elastin synthesis assay [reference compound]” was tested, and the “INCREASE IN ELASTIN SYNTHESIS” value (elastin) was 35.6%.
